We go through three compounds from ChEMBL document CHEMBL4354880, “Synthesis and Structure-Activity Relationships of Arylsulfonamides as AIMP2-DX2 Inhibitors for the Development of a Novel Anticancer Therapy” (J Med Chem, 2020).

For data set [1], the system named is A549. As to the kind of experiment: cells. The note with it: Homo sapiens, A549, 72 h.
Description: Antiproliferative activity against human A549 cells measured after 72 hrs by MTT assay
A short description of data set [2]: Cytotoxicity against human WI26 cells assessed as reduction in cell viability measured after 72 hrs by MTT assay.
The subject of data set [3] is A549. The data set is described as follows: Antiproliferative activity against human A549 cells stably expressing AIMP2 DX2 isoform measured after 72 hrs by MTT assay. Type of data set: functional, cell-based.
In data set [4] the test system is NCI-H460. As to the kind of experiment: Antitumor activity against human H460 cells xenografted in BALB/c SLC nu/nu mouse assessed as reduction in tumor volume at 50 mg/kg, ip administered every other day for 15 days and measured 4 times during compound dosing. Type of data set: functional, organism-based.
Data set [5] relates to A549. The note with it: Homo sapiens, 5 uM.
Description: Inhibition of LgBiT-tagged PRKACA-SmBiT-tagged PRKAR2A (unknown origin) protein-protein interaction expressed in human A549 cells at 5 uM measured after 4 hrs by luminescence assay
A short description of data set [6]: Toxicity in human H460 cells xenografted BALB/c SLC nu/nu mouse assessed as change in body weight at 50 mg/kg, ip administered every other day for 15 days and measured 4 times during compound dosing. The note with it: in vivo, 360 h.
In data set [7] the test system is NCI-H460. The data set is described as follows: Cytotoxicity against human NCI-H460 3D spheroid cells assessed as reduction in cell viability measured after 72 hrs by Celltiter-glo assay. Background: ATP-based viability assays read luminescence as a measure of living cells.
Data set [8] has as its system NCI-H460. As to the kind of experiment: Antitumor activity against human H460 cells xenografted in BALB/c SLC nu/nu mouse assessed as reduction in tumor weight at 50 mg/kg, ip administered every other day for 15 days and measured post-last dose. Type of data set: functional, organism-based. For orientation: A xenograft is tissue or cells of one species grown in another, often human tumour cells in immunodeficient mice.

Data set [9] deals with Aminoacyl tRNA synthase complex-interacting multifunctional protein 2 (Homo sapiens, UniProt Q13155). The data set is described as follows: Inhibition of nanoluciferase-tagged AIMP2 DX2 isoform (unknown origin) expressed in human A549 cells measured after 4 hrs by luminescence assay. The data set is classed as cell-based.
Data set [10] deals with T1, Aminoacyl tRNA synthase complex-interacting multifunctional protein 2 (Homo sapiens, UniProt Q13155).
T1 sequence (Q13155 whole entry): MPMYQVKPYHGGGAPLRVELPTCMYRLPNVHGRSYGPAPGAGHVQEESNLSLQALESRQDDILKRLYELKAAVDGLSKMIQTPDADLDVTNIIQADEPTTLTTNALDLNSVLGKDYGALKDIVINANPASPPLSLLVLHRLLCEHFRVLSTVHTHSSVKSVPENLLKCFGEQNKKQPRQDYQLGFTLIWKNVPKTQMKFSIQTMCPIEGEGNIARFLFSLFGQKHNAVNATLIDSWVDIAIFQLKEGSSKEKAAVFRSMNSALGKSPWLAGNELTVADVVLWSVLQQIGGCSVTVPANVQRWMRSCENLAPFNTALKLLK
As to the kind of experiment: Inhibition of nanoluciferase-tagged AIMP2 (unknown origin) expressed in human A549 cells measured after 4 hrs by luminescence assay. Type of data set: cell-based.

SMILES strings stand for the structures. Calls of active or inactive are those of the source. No cut-off for these calls is given here. Where only a bound is given, the exact number is not on record here.

As for `Cc1ccc(S(=O)(=O)N[C@@H](Cc2c[nH]c3ccccc23)C(=O)Nc2ccc(N3CCOCC3)cc2)cc1`, the results for the EC50 (with A549 [1]; in [2]) were 14.2 µM and greater than 100 µM, respectively.

For the compound `COc1ccc(-c2csc(NC(=O)[C@H](Cc3c[nH]c4ccccc34)NS(=O)(=O)c3ccc(C)cc3)n2)cc1`, the outcome in the data set on A549 [3], with NCI-H460 [4] and in the data set on NCI-H460 [8] was Active. In addition, the EC50 with A549 [1] is 1.2 µM; in [2] it was greater than 100 µM. The inhibition entry with A549 [5] was “inactive”. Also, the Activity entry in data set [6] is “Non-Toxic”; in the data set with NCI-H460 [7], “Dose-dependent effect”.

On to `Cc1ccc(S(=O)(=O)N[C@@H](CC(C)C)C(=O)N2CCOCCOCCOCC2)cc1`, for which the IC50 in data set [9] is 40.1 µM; in data set [10] it was greater than 100 µM. Besides, the EC50 in the data set on A549 [1] is 40.8 µM; in data set [2], greater than 100 µM.

The term EC50 denotes the concentration at which the effect is half-maximal. For orientation: IC50 means the point on the concentration scale where inhibition reaches its midpoint.
